Data published in US20170196888A1, “COMPOSITIONS AND METHODS FOR TREATING CANCER” (Yeda Research and Development Co. Ltd., priority 2014, published 2017).

Experiments:
EGF-induced genes = test: Affymetrix Exon Array time course of EGF- and DEX-regulated transcripts; type: cell-based, human; conditions: at 20 minutes
Method: (§1) RNA was isolated using the PerfectPure kit from 5 Prime (Hamburg, Germany). Affymetrix GeneChip Human Exon 1.0 ST arrays were used and data were deposited in Gene Expression Omnibus (GSE53405). PCR of pre-mRNA or mRNA used forward primers positioned in the second intron or exon, respectively (Table 3 below).
(§2) All reactions were performed using Power SYBR Green PCR Master Mix (Applied Biosystems, Foster City, CA). For high throughput PCR the Fluidigm® BioMark system was employed. The Affymetrix Expression Console was used for analyses of DNA-arrays, as described^51.
Conceivably, the inhibitory effect of GR involves alterations of EGF-induced transcription. Specifically, GR might affect transcript synthesis or modulate EGF-induced RNA splicing in MCF10A cells. To address such models, cells were stimulated with EGF, DEX or the combination, mRNAs were isolated along a time course from 20 minutes to four hours, and the RNA was hybridized to Affymetrix Exon Arrays which is able to resolve small changes in splicing^19. In addition, confirmatory PCR analyses are provided.

MCF10A cells [1] = test: Transwell migration assay of EGF-stimulated MCF10A cells; type: cell-based, human; conditions: for inhibition of EGF-induced cell migration: MCF10A in transwell, EGF 10 ng/ml, DEX 100 nM, E2 30 nM, PRG 30 nM, MPA 100 nM, 20 hours
Method: MCF10A cells were grown as described^16 and stimulated with EGF (10 ng/ml) or DEX (100 nM). siRNA transfections employed Oligofectamine (Invitrogen) and ON-Target SMART (Dharmacon, Lafayette, Colo.) oligonucleotides. Lapatinib (di-p-Toluenesulfonate Salt) was purchased from LC Laboratories. Anti GR antibody for immunostaining (sc-1004, SANTA CRUZ BIOTECHNOLOGY, INC.)
Cells (5×10^4 cell/insert) were plated in the upper compartment of a 24-well transwell tray (Corning, Acton, MA), and their migration was assayed^16. Cell invasion assays were performed using BioCoat Matrigel Invasion Chambers (BD Bioscience, Franklin Lakes, N.J.). For tracking, cells were seeded (3×10^3 cells/cm^2) on collagen-coated micro-slide (from Ibidi). For collective migration, 8×10^4 cells were seeded in plastic insets (Ibidi), and after overnight incubation, the plastic barriers were removed and time-lapse images were recorded.

[2] = system: MCF10A derivatives stably expressing ERRFI1-specific shRNAs; test: Migration assay of ERRFI1-depleted MCF10A derivatives; type: cell-based, human; conditions: ERRFI1-depleted cells
Method: FIG. 3A—Serum-starved MCF10A cells were treated with EGF or DEX. qPCR analysis was performed using RNA and primers corresponding to pre-mRNAs (dashed lines) or the mature forms (solid lines). FIG. 3B—A scheme depicting negative feedback regulators of EGFR signalling. FIGS. 3C-D—Cells were stimulated as in A and extracts were immunoblotted for ERRFI1, GR and ERK2. Normalized ERRFI1 signals are shown. FIGS. 3E-F—Active ERK signals (pERK) were determined, normalized and presented. FIG. 3G—MCF10A derivatives stably expressing ERRFI1-specific shRNAs were tested for migration following the indicated treatments. The results were analysed as in FIG. 1D. *p<0.05; ***p<0.0001 (one-way Anova). FIG. 3H—Serum-starved MCF10A cells were pre-incubated for 20 minutes with actinomycin D (1 μg/m1), and thereafter stimulated for the indicated time intervals with EGF or DEX. […] FIG. 3I—The pERK signals from FIG. 3H and additional experiments were quantified, normalized to total ERK2 levels and presented.
Cells (5×10^4 cell/insert) were plated in the upper compartment of a 24-well transwell tray (Corning, Acton, MA), and their migration was assayed^16. […] For collective migration, 8×10^4 cells were seeded in plastic insets (Ibidi), and after overnight incubation, the plastic barriers were removed and time-lapse images were recorded.

MCF10A cells [3] = test: Annexin V / propidium iodide flow cytometry; type: cell-based, human; conditions: MCF10A pre-treated 24 hours with EGF, DEX or the combination
Method: FIG. 1J—MCF10A cells pre-treated for 24 hours with of EGF, DEX or the combination. Thereafter, cells were stained for the apoptosis marker annexin V and the necrosis marker propidium iodide (PI), and later assayed using flow cytometry.

[4] = system: N87 human gastric cancer cells; test: N87 tumor xenograft study with day or night dosing; type: in vivo, mice
Method: All animal experiments were approved by the institutional committee. C57BL/6 (CD45.2, Harlan) and knockout animals were maintained under defined flora conditions and at 12 hour light-dark cycles. For daily clock studies, female mice (10-12 week old) were divided into 2 groups; one was maintained in the day-night room, and the second group was located in a special room (with inverted day-light cycles). Mice were let acclimate for at least one week prior to protein and RNA extraction. For tumor xenograft studies, 20 athymic nude (nu/nu) mice were used and maintained in a Specific Pathogen Free environment. Animals (n=10 per group) were inoculated subcutaneously in the left leg (using a sterile 22-gauge needle) with 5×10^6 N87 cells. Mice were randomized into two groups, daily treated with Lapatinib by oral gavage (40 mg/kg) in the night (2 hours after the light off) and in the day (approximately 70 minutes before light on). Treatments were started 2 weeks after cell injection. Tumor width (W) and length (L) were measured once a week with a calliper and tumor volume (V) was calculated according to the formula: V=0.5×W^2×L.

glucocorticoid receptor = biological target: T1, glucocorticoid receptor (Homo sapiens, UniProt P04150); conditions: cited from earlier work
T1 sequence (P04150 1-777): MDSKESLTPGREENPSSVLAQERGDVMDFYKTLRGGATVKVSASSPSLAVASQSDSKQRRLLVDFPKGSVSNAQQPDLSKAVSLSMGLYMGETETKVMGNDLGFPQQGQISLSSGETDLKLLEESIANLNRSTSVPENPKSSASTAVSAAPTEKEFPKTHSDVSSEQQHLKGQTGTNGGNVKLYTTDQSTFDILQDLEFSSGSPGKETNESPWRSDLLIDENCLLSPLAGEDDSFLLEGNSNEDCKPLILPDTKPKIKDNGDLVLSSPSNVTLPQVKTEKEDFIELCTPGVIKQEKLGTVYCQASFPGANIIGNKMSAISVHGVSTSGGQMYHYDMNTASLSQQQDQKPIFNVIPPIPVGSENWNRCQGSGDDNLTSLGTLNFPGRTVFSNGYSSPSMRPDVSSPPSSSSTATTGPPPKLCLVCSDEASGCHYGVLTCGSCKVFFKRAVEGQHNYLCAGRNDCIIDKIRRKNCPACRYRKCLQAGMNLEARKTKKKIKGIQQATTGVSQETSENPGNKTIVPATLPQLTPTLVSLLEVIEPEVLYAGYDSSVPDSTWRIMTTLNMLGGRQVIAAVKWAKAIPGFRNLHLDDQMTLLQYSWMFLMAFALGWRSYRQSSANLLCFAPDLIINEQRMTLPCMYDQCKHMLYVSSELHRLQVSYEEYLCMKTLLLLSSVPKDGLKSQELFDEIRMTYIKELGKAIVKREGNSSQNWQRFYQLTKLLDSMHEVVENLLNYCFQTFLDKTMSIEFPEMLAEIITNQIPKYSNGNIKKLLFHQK

DUSP1 and ERRFI1 = test: qPCR of negative feedback regulators (pre-mRNA and mRNA); type: cell-based, human; conditions: serum-starved MCF10A, EGF 10 ng/ml, DEX 100 nM
Method: as §1, §2
Analyses of defects in vulva formation in worms and aberrations in eye development in insects, two processes controlled by EGFR, helped define several evolutionary conserved and partly redundant negative feedback loops able to robustly terminate EGFR signalling^21. Since Module A (EGF^UP/DEX^UP) includes several orthologs of the invertebrate negative feedback loops, three of them were selected for further analysis. DUSP1 is the prototype of MAPK-specific phosphatases, which dephosphorylate the shared Thr-Xxx-Tyr motif of MAPKs. ERRFI1/MIG6 (also called RALT) is a previously identified steroid-inducible adaptor, which physically binds and inhibits the kinase domain of EGFR^5. […] By using primers specific for the nascent or the mature transcripts, de novo transcription of these three negative regulators was followed (FIG. 3A). […]

Compound: C[C@@H]1C[C@H]2[C@@H]3CCC4=CC(=O)C=C[C@]4(C)[C@@]3(F)[C@@H](O)C[C@]2(C)[C@@]1(O)C(=O)CO [DEX, dexamethasone]
- inhibitory effect on EGF-induced genes, share of maximal capacity (EGF-induced genes): 70%
- inhibition of EGF-induced migration (MCF10A cells [1]; control cells): 90%
- inhibition of EGF-induced migration [2]: 30%
- cellular toxicity, markers of apoptosis (annexin V) and necrosis (propidium iodide) (MCF10A cells [3]): excluded the possibility of cellular toxicity

Compound: CS(=O)(=O)CCNCc1ccc(-c2ccc3ncnc(Nc4ccc(OCc5cccc(F)c5)c(Cl)c4)c3c2)o1 [Lapatinib]
- therapeutic impact on tumor size and weight by time of administration ([4]; 40 mg/kg/day oral gavage, just before the resting phase (ZT23) versus beginning of the active phase): statistically significant enhancement
- tumor angiogenesis (appearance of tumors) ([4]; administration during the resting phase): inhibited tumor angiogenesis

Compound: CC(=O)O[C@]1(C(C)=O)CC[C@H]2[C@@H]3C[C@H](C)C4=CC(=O)CC[C@]4(C)[C@H]3CC[C@@]21C [MPA, medroxyprogesterone acetate]
- EC50 (glucocorticoid receptor): ~0.01 µM
- inhibition of EGF-induced cell migration (MCF10A cells [1]): less potent

Compound: CC(=O)[C@H]1CC[C@H]2[C@@H]3CCC4=CC(=O)CC[C@]4(C)[C@H]3CC[C@]12C [PRG, progesterone]
- inhibition of EGF-induced cell migration (MCF10A cells [1]): weak or no activity

Compound: EGF: epidermal growth factor, EGFR ligand used to stimulate MCF10A cells
- induction of DUSP1 and ERRFI1 transcripts (DUSP1 and ERRFI1): 3-5 fold
